Measurements as given in US20250171460A1, “INDUCERS OF KLF2 AND METHODS OF USE THEREOF” (Riparian Pharmaceuticals, Inc., priority 2022, published 2025).

Tested on: primary human endothelial cells expressing luciferase under the control of the KLF2 promoter
Experiment: KLF2 Induction Cell Based Bioassay (luciferase reporter)
Settings: Bioactivity of stereoisomers: S isomer
Excerpt: In endothelial cell culture media, a stock of the highest working concentration was made at no more than 1% DMSO vehicle. The working stock was then serially diluted 1:2 to make an 11-point concentration response curve. Included in the 96-well plate were 2 reference compounds with known potencies. A DMSO column was included in the 96-well plate at the highest percent vehicle of the working stocks. The 96-well cell culture plate of primary human endothelial cells expressing luciferase under the control of the KLF2 promoter was dosed with 200 μL per well of the dilution series as well as the DMSO control column. The assay plate was incubated at 37° C. for 24 hours. The supernatant was collected at 24 hours.
20 μL of the supernatant was then placed in a 384-well plate with optical duplicates. The corners of the plate received 20 μL of the Gaussia Luciferase Enzyme positive control, as well as 20 μL of the 50 μM Coelenterizine substrate. The plate read is then calibrated using the control, and read using a Molecular Devices SpectraMax iD5, providing luminescence in relative light units (RLU). The plate reader injected 20 μL of the 50 μM Coelenterizine substrate immediately before taking the RLU measurement for each well.
The sample signals were then normalized to the average signal of the DMSO column, as well as to the maximum signal of one of the reference compounds, as shown in the equations below: […]
The EC50 of each compound is then defined as when the concentration response curve passes 0.5.

`COCCOCCn1cc(CCN2C(=O)c3oc4ccccc4c3OC[C@@]2(C)C(=O)NCc2ccccc2OC)nn1` [Example 136] was tested, and the “Bioactivity Bucket, S” value was “inactive”.

Same assay, conditions: Homo sapiens, Endothelial cell, 24 h, KLF2 promoter luciferase, 24 hours, 11-point concentration response; read-out: Activity Range (EC50)

`COCCN1C(=O)c2oc3ccccc3c2OCC1(C)C(=O)NCc1cc(F)ccc1OC` (stereo not shown) [Example 38] and `COCCN1C(=O)c2oc3ccccc3c2OCC1(C)C(=O)NCc1ccc(F)cc1OC` (stereo not shown) [Example 39] fall in the same range of EC50: 501 to 5000 nM for the first, 501 to 5000 nM for the second.

`COc1cc(F)ccc1CNC(=O)C1(C)COc2c(oc3cc(C(=O)NC4CCC4)ccc23)C(=O)N1[C@H]1C[C@@H](OC)C1` (stereo partly shown) [Example 71] and `COc1ccc(F)cc1CNC(=O)C1(C)COc2c(oc3cc(C(=O)NC4CCC4)ccc23)C(=O)N1[C@H]1C[C@@H](OC)C1` (stereo partly shown) [Example 73] fall in the same range of EC50: 51 to 500 nM for the first, 51 to 500 nM for the second.

`COCCN1C(=O)c2oc3cc(C4CC4)ccc3c2OCC1(C)C(=O)NCc1ccccc1OC` (stereo not shown) [Example 97] and `COCCN1C(=O)c2oc3cc(C(=O)NC4CCC4)ccc3c2OC[C@@]1(C)C(=O)NCc1ccccc1OC` [Example 49, (S)—N8-cyclobutyl-N3-(2-methoxybenzyl)-4-(2-methoxyethyl)-3-methyl-5-oxo-2,3,4,5-tetrahydrobenzofuro[2,3-f][1,4]oxazepine-3,8-dicarboxamide] fall in the same range of EC50: 501 to 5000 nM for the first, 501 to 5000 nM for the second.

First: COCCN1C(=O)c2oc3cc(C(=O)NC4(C)COC4)ccc3c2OCC1(C)C(=O)NCc1ncccc1OC (stereo not shown) [Example 66]
Second: COCCN1C(=O)c2oc3cc(C(=O)NC4(C)COC4)ccc3c2OCC1(C)C(=O)NCc1c(Cl)cccc1OC (stereo not shown) [Example 64]
The EC50 of the first is higher: 501 to 5000 nM for the first, 51 to 500 nM for the second.

`COCCN1C(=O)c2oc3ccccc3c2OCC1(C)C(=O)NCc1c(F)cccc1OC` (stereo not shown) [Example 37] and `COCCN1C(=O)c2oc3ccccc3c2OCC1(C)C(=O)NCc1c(OC)ccc2ccccc12` (stereo not shown) [Example 32] fall in the same range of EC50: 501 to 5000 nM for the first, 501 to 5000 nM for the second.

`[2H]C([2H])([2H])N(C(=O)CN1C(=O)c2oc3ccc(F)cc3c2OC[C@]1(C)C(=O)NCc1c(F)cccc1OC)C([2H])([2H])[2H]` [Example 114, (R)-4-(2-(bis(methyl-d3)amino)-2-oxoethyl)-9-fluoro-N-(2-fluoro-6-methoxybenzyl)-3-methyl-5-oxo-2,3,4,5-tetrahydrobenzofuro[2,3-f][1,4]oxazepine-3-carboxamide] and `COc1cccc(F)c1CNC(=O)C1(C)COc2c(oc3ccc(Cl)cc23)C(=O)N1CC(=O)N(C)C` (racemic) [Example 106, 9-chloro-4-(2-(dimethylamino)-2-oxoethyl)-N-(2-fluoro-6-methoxybenzyl)-3-methyl-5-oxo-2,3,4,5-tetrahydrobenzofuro[2,3-f][1,4]oxazepine-3-carboxamide] fall in the same range of EC50: 51 to 500 nM for the first, 51 to 500 nM for the second.

`COCCN1C(=O)c2oc3ccccc3c2OCC1(C)C(=O)NCc1c(Cl)cc(Cl)cc1OC` (stereo not shown) [Example 44] and `COCCN1C(=O)c2oc3ccccc3c2OCC1(C)C(=O)NCc1cc(F)c(Cl)cc1OC` (stereo not shown) [Example 45] fall in the same range of EC50: 501 to 5000 nM for the first, 501 to 5000 nM for the second.

First: [2H]C([2H])([2H])N(C(=O)CN1C(=O)c2oc3cc(-c4nc(C(F)(F)F)cs4)ccc3c2OC[C@]1(C)C(=O)NCc1ncccc1OC)C([2H])([2H])[2H] [Example 126]
Second: [2H]C([2H])([2H])N(C(=O)CN1C(=O)c2oc3ccc(Cl)cc3c2OCC1(C)C(=O)NCc1ncccc1OCC)C([2H])([2H])[2H] (stereo not shown) [Example 109, 4-(2-(bis(methyl-d3)amino)-2-oxoethyl)-9-chloro-N-((3-ethoxypyridin-2-yl)methyl)-3-methyl-5-oxo-2,3,4,5-tetrahydrobenzofuro[2,3-f][1,4]oxazepine-3-carboxamide]
The EC50 of the first is lower: no more than 50 nM for the first, 51 to 500 nM for the second.

`COCCN1C(=O)c2oc3cc(C(=O)NC4(C)COC4)ccc3c2OCC1(C)C(=O)NCc1c(C#N)cccc1OC` (stereo not shown) [Example 62] and `COc1cccc(C#N)c1CNC(=O)C1(C)COc2c(oc3cc(C(=O)NC4(C)COC4)ccc23)C(=O)N1CC1CC1` (stereo not shown) [Example 65] fall in the same range of EC50: 51 to 500 nM for the first, 51 to 500 nM for the second.

`COCCN1C(=O)c2oc3ccccc3c2OCC1(C)C(=O)NCc1cc(OC)ccc1OC` (stereo not shown) [Example 35] and `COCCN1C(=O)c2oc3ccccc3c2OCC1(C)C(=O)NCc1cc2ccccc2cc1OC` (stereo not shown) [Example 31] fall in the same range of EC50: 501 to 5000 nM for the first, 501 to 5000 nM for the second.

First: COc1cccc(Cl)c1CNC(=O)C1(C)COc2c(oc3cc(C(=O)NC4(C)COC4)ccc23)C(=O)N1[C@H]1C[C@@H](OC)C1 (stereo partly shown) [Example 85]
Second: COc1cccnc1CNC(=O)C1(C)COc2c(oc3cc(C(=O)NC4(C)COC4)ccc23)C(=O)N1CC1CC1 (stereo not shown) [Example 52]
The EC50 of the first is lower: no more than 50 nM for the first, 51 to 500 nM for the second. The first is the more potent here.

`COCCN1C(=O)c2oc3cc(C(=O)NC4(C)COC4)cnc3c2OCC1(C)C(=O)NCc1ccccc1OC` (stereo not shown) [Example 122] and `COCCN1C(=O)c2oc3cc(C(=O)NC4CCC4)ccc3c2OCC1(C)C(=O)NCc1ccc(F)cc1OC` (stereo not shown) [Example 77] fall in the same range of EC50: 51 to 500 nM for the first, 51 to 500 nM for the second.

`COc1cccc(F)c1CNC(=O)C1(C)COc2c(oc3ccc(C)cc23)C(=O)N1CC(=O)N(C)C` (stereo not shown) [Example 133, 4-(2-(dimethylamino)-2-oxoethyl)-N-(2-fluoro-6-methoxybenzyl)-3,9-dimethyl-5-oxo-2,3,4,5-tetrahydrobenzofuro[2,3-f][1,4]oxazepine-3-carboxamide] and `COc1cccc(F)c1CNC(=O)[C@@]1(C)COc2c(oc3cc(C(F)(F)F)cnc23)C(=O)N1CC(=O)N(C)C` [Example 134, (R)-4-(2-(dimethylamino)-2-oxoethyl)-N-(2-fluoro-6-methoxybenzyl)-3-methyl-5-oxo-8-(trifluoromethyl)-2,3,4,5-tetrahydropyrido[2′,3′:4,5]furo[2,3-f][1,4]oxazepine-3-carboxamide] fall in the same range of EC50: 51 to 500 nM for the first, 51 to 500 nM for the second.

`COc1cccnc1CNC(=O)[C@@]1(C)COc2c(oc3ccc(F)cc23)C(=O)N1CC(=O)N1CC(F)C1` [Example 115] and `COc1cccnc1CNC(=O)[C@@]1(C)COc2c(oc3ccc(F)cc23)C(=O)N1CC(=O)N1CC(F)(F)C1` [Example 116] fall in the same range of EC50: 51 to 500 nM for the first, 51 to 500 nM for the second.

`COc1ccc(F)c(F)c1CNC(=O)C1(C)COc2c(oc3cc(C(=O)NC4CCC4)ccc23)C(=O)N1CC1CC1` (stereo not shown) [Example 58] and `COc1cc(F)ccc1CNC(=O)C1(C)COc2c(oc3cc(C(=O)NC4CCC4)ccc23)C(=O)N1CC1CC1` (stereo not shown) [Example 72] fall in the same range of EC50: 51 to 500 nM for the first, 51 to 500 nM for the second.

Compared with `COc1ccccc1CNC(=O)C1(C)COc2c(oc3ccccc23)C(=O)N1CC(C)(C)OC` (stereo not shown) [Example 3], `CCOC(=O)CN1C(=O)c2oc3ccccc3c2OCC1(C)C(=O)NCc1ccccc1OC` (stereo not shown) [Example 4] is higher in EC50: 51 to 500 nM for the first, 501 to 5000 nM for the second. The first is the more potent here.

`COCCN1C(=O)c2oc3ccccc3c2OCC1(C)C(=O)NCc1c(OC)ccc2cnccc12` (stereo not shown) [Example 19] and `COCCN1C(=O)c2oc3ccccc3c2OCC1(C)C(=O)NCc1c(OC)ccc2ccncc12` (stereo not shown) [Example 30] fall in the same range of EC50: 501 to 5000 nM for the first, 501 to 5000 nM for the second.

`C#CCCN1C(=O)c2oc3ccccc3c2OC[C@]1(C)C(=O)NCc1ccccc1OC` [Example 6] and `COc1ccccc1CNC(=O)C1(C)COc2c(oc3ccccc23)C(=O)N1CC1(O)CCC1` (stereo not shown) [Example 11] fall in the same range of EC50: 501 to 5000 nM for the first, 501 to 5000 nM for the second.

`COc1cccc(F)c1CNC(=O)[C@@]1(C)COc2c(oc3ccc(F)cc23)C(=O)N1Cc1nnn(CCO)n1` [Example 118] and `COc1cccnc1CNC(=O)[C@@]1(C)COc2c(oc3ccc(F)cc23)C(=O)N1Cc1cn(CCO)nn1` [Example 120, (R)-9-fluoro-4-((1-(2-hydroxyethyl)-1H-1,2,3-triazol-4-yl)methyl)-N-((3-methoxypyridin-2-yl)methyl)-3-methyl-5-oxo-2,3,4,5-tetrahydrobenzofuro[2,3-f][1,4]oxazepine-3-carboxamide] fall in the same range of EC50: 51 to 500 nM for the first, 51 to 500 nM for the second.

`COc1cccc(C#N)c1CNC(=O)C1(C)COc2c(oc3cc(C(=O)NC4CCC4)ccc23)C(=O)N1CC1CC1` (stereo not shown) [Example 67] and `COc1ccccc1CNC(=O)C1(C)COc2c(oc3ccc(F)cc23)C(=O)N1CC(=O)C1CC1` (stereo not shown) [Example 113, 4-(2-cyclopropyl-2-oxoethyl)-9-fluoro-N-(2-methoxybenzyl)-3-methyl-5-oxo-2,3,4,5-tetrahydrobenzofuro[2,3-f][1,4]oxazepine-3-carboxamide] fall in the same range of EC50: 51 to 500 nM for the first, 51 to 500 nM for the second.

First: COCCN1C(=O)c2oc3ccccc3c2OCC1(C)C(=O)NCc1ccc2ccccc2c1OC (stereo not shown) [Example 41]
Second: COc1cccc(F)c1CNC(=O)[C@@]1(C)COc2c(oc3ccc(Cl)cc23)C(=O)N1CC(=O)N1CC(O)C1 [Example 105]
The EC50 of the first is higher: 501 to 5000 nM for the first, 51 to 500 nM for the second. The second is the more potent here.

Compound `[2H]C([2H])([2H])N(C(=O)CN1C(=O)c2oc3ccc(Cl)cc3c2OCC1(C)C(=O)NCc1ncccc1OC(C)C)C([2H])([2H])[2H]` (stereo not shown) [Example 110] has an EC50 of 501 to 5000 nM.

Same assay, conditions: Homo sapiens, Endothelial cell, Bioactivity of stereoisomers: R isomer; read-out: Bioactivity Bucket, R

Compound `C#CCCN1C(=O)c2oc3ccccc3c2OC[C@]1(C)C(=O)NCc1ccccc1OC` [Example 6] has an EC50 of 501 to 5000 nM.

Same assay, conditions: Homo sapiens, Endothelial cell, Bioactivity of stereoisomers: S isomer; read-out: Bioactivity Bucket, S

`COCCN1C(=O)c2oc3cc(C(=O)NC4CCC4)ccc3c2OC[C@@]1(C)C(=O)NCc1ccccc1OC` [Example 49, (S)—N8-cyclobutyl-N3-(2-methoxybenzyl)-4-(2-methoxyethyl)-3-methyl-5-oxo-2,3,4,5-tetrahydrobenzofuro[2,3-f][1,4]oxazepine-3,8-dicarboxamide] was tested, and the EC50 was 501 to 5000 nM.

Same assay, conditions: Homo sapiens, Endothelial cell, Bioactivity of stereoisomers: racemate; read-out: Bioactivity Bucket, Racemate

First: COc1cccc(F)c1CNC(=O)C1(C)COc2c(oc3ccc(Cl)cc23)C(=O)N1CC(=O)N(C)C (racemic) [Example 106, 9-chloro-4-(2-(dimethylamino)-2-oxoethyl)-N-(2-fluoro-6-methoxybenzyl)-3-methyl-5-oxo-2,3,4,5-tetrahydrobenzofuro[2,3-f][1,4]oxazepine-3-carboxamide]
Second: C#CCCN1C(=O)c2oc3ccccc3c2OCC1(C)C(=O)NCc1ccccc1OC (racemic) [Example 5]
The EC50 of the first is lower: 51 to 500 nM for the first, 501 to 5000 nM for the second.

Same assay, conditions: KLF2 promoter luciferase, 24 hours, 11-point concentration response; read-out: Activity Range (EC50)

`COc1cccc(F)c1CNC(=O)C1(C)COc2c(oc3ccc(Cl)cc23)C(=O)N1Cc1ncnn1C` (stereo not shown) [Example 108, 9-chloro-N-(2-fluoro-6-methoxybenzyl)-3-methyl-4-((1-methyl-11H-1,2,4-triazol-5-yl)methyl)-5-oxo-2,3,4,5-tetrahydrobenzofuro[2,3-f][1,4]oxazepine-3-carboxamide] was tested, and the EC50 was 51 to 500 nM.
